Experimental data taken from patent publication US10920506B2, “Methods for wellbore milling operations” (STEP ENERGY SERVICES LTD., priority 2018, dated 2021).

Legend:
[1] = IBDU solubility without accelerator, 2 bag STEPvert LT diversion pill in water or brine; assay type: physicochemical; settings: 45 kg/m3 loading of IBDU in water or brine
Source text: Operations: • When milling in an underpressured well (i.e. hydrostatic pressure is greater than bottom hole pressure), or when there are indications of possible or actual lost circulation. • Add two bags of 100 Mesh IBDU such as STEPvert LT™ available from STEP Energy Services Ltd. to fluid in a displacement tank (45 kg/m^3), engage agitation paddle to maximum RPM (if paddle is not spinning fast enough to mix fluid, increase paddle speed) to ensure mixing. Continue mixing or, as noted above, displace while IBDU is added. • To avoid the IBDU settling out prior to arriving downhole, adjust the fluid if necessary to increase the carrying capacity of the fluid such that solid IBDU is able to remain suspended for the period of time it takes to get downhole. This may be achieved by pump rate and/or addition of viscosifiers. Thus, to better suspend solids: • A gelling agent is added: For example liquid gel hydroxyethyl cellulose 5 L/m^3 (2 kg/m^3 if dry gel) is added to the displacement tank with a target hydration time of 3 minutes; and/or • Slowly pour IBDU into the mixing tub while displacing to ensure no product settles out. • Add a degradation accelerator if needed. Consider Table 1 where IBDU solubility is summarized with and without a citric acid accelerator based on 45 kg/m3 loading of IBDU in water or brine: […]

[2] = IBDU dissolution time with citric acid accelerator (Accelerator HT); assay type: physicochemical; settings: 2 bag pill, 45 kg/m3 IBDU in water or brine
Source text: Operations: • When milling in an underpressured well (i.e. hydrostatic pressure is greater than bottom hole pressure), or when there are indications of possible or actual lost circulation. • Add two bags of 100 Mesh IBDU such as STEPvert LT™ available from STEP Energy Services Ltd. to fluid in a displacement tank (45 kg/m^3), engage agitation paddle to maximum RPM (if paddle is not spinning fast enough to mix fluid, increase paddle speed) to ensure mixing. Continue mixing or, as noted above, displace while IBDU is added. • To avoid the IBDU settling out prior to arriving downhole, adjust the fluid if necessary to increase the carrying capacity of the fluid such that solid IBDU is able to remain suspended for the period of time it takes to get downhole. This may be achieved by pump rate and/or addition of viscosifiers. Thus, to better suspend solids: • A gelling agent is added: For example liquid gel hydroxyethyl cellulose 5 L/m^3 (2 kg/m^3 if dry gel) is added to the displacement tank with a target hydration time of 3 minutes; and/or • Slowly pour IBDU into the mixing tub while displacing to ensure no product settles out. • Add a degradation accelerator if needed. Consider Table 1 where IBDU solubility is summarized with and without a citric acid accelerator based on 45 kg/m3 loading of IBDU in water or brine:
• Generally if the formation temperature is less than 90° C., use a degradation accelerator, such as a resin coated citric acid such as Accelerator HT™ available from STEP Energy Services Ltd. The citric acid reduces pH in order to reduce degradation time of the IBDU. The resin coating ensures that the citric acid substantially will not begin to act until it reaches formation temperature. The resin breaks down to expose the acid and the acid then reduces pH and expedites degradation. • The pill of the IBDU, possibly including degradation accelerator, is launched. If a twin pump is employed, pump only through one fluid end and isolate the idle side. This ensures diverter only enters one side of plumbing. This is an operational efficiency, where only one fluid end is exposed to diverter in case it collects in large quantities and holds a valve and seat open. By always keeping one side “clean” (no solids) operational risks are mitigated. • Maintain a minimum rate of at least about 0.2 m^3/min or possibly about 0.4 m^3/min through the single fluid end (higher rate is better to aid in carrying solids). If fluid is comingled with gas such as nitrogen, lower rates may be used. […] This ensures the fluid end has been properly flushed. • Track volume from when pill enters the coil to when it is expected to reach open formation. Record the time that each pill reaches formation/exits coil BHA on treatment report (include surface iron in volume calculation). In case a large pressure event occurs when the pill exits the downhole pump, only one pill is to be inside coil at any given time.

[3] = 50° C., Accelerator HT Loading 5 kg
[4] = 60° C., Accelerator HT Loading 4 kg
[5] = 70° C., Accelerator HT Loading 2 kg
[6] = 80° C., Accelerator HT Loading 1 kg
[7] = 90° C., Accelerator HT Loading 0 kg

## CC(C)C(NC(N)=O)NC(N)=O [STEPvert LT, isobutylidene diurea]
[1]; 50° C.
  No Accelerator Solubility, % 24 Hours: 14%
  No Accelerator Solubility, % 48 Hours: 20%
  No Accelerator Solubility, % 96 Hours: 32%
[1]; 60° C.
  No Accelerator Solubility, % 24 Hours: 18%
  No Accelerator Solubility, % 48 Hours: 24%
  No Accelerator Solubility, % 96 Hours: 35%
[1]; 70° C.
  No Accelerator Solubility, % 24 Hours: 32%
  No Accelerator Solubility, % 48 Hours: 35%
  No Accelerator Solubility, % 96 Hours: 51%
[1]; 80° C.
  No Accelerator Solubility, % 24 Hours: 51%
  No Accelerator Solubility, % 48 Hours: 96%
  No Accelerator Solubility, % 96 Hours: 98%
[1]; 90° C.
  No Accelerator Solubility, % 24 Hours: 89%
  No Accelerator Solubility, % 48 Hours: 96%
  No Accelerator Solubility, % 96 Hours: 98%
[2]; [3]
  50% Dissolution Time: 1.5 days
  100% Dissolution Time: 5 days
[2]; [4]
  50% Dissolution Time: 1 days
  100% Dissolution Time: 3 days
[2]; [5]
  50% Dissolution Time: 1 days
  100% Dissolution Time: 2 days
[2]; [6]
  50% Dissolution Time: 1 days
  100% Dissolution Time: 2 days
[2]; [7]
  50% Dissolution Time: 0.33 days
  100% Dissolution Time: 1 days
